Experimental data from PubChem BioAssay AID652002 (Sanford-Burnham Center for Chemical Genomics, 2013).
The source made the active and inactive calls. No rule for the calls is given here.

Experiments:
[1] = compound enhancement of TRAIL-induced cell killing – NB7 cells plus caspase-8, luminescence, panel, dose response (AID 652002); conditions: NB7 neuroblastoma +caspase-8, no TRAIL, compound-alone cytotoxicity counter-screen, luminescence viability, NB7+Caspase-8
[2] = target: Tumor necrosis factor receptor superfamily member 10B (Homo sapiens) (UniProt O14763); experiment: as above; conditions: NB7 neuroblastoma +caspase-8, TRAIL sensitization, luminescence viability; NB7+Caspase-8; with TRAIL, mean of runs
NB7+Caspase-8 = experiment: as above; conditions: NB7 neuroblastoma +caspase-8, TRAIL sensitization, luminescence viability, with TRAIL
[3] = run 1, single replicate panel EC50
[4] = run 2, single replicate panel EC50

Chain of Tumor necrosis factor receptor superfamily member 10B (Homo sapiens) (O14763 whole entry, looked up): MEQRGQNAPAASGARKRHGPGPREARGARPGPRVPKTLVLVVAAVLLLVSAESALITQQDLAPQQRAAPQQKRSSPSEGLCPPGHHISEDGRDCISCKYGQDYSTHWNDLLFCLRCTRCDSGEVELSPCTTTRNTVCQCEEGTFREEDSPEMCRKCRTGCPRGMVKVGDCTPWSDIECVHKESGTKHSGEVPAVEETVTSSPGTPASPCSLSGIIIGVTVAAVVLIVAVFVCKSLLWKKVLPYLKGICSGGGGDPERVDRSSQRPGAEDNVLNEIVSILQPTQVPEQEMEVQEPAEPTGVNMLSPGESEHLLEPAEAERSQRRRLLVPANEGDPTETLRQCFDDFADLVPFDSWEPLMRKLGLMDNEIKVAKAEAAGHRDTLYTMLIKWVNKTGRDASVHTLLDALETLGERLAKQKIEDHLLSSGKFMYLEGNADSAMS

Structure (SMILES)	EC50 ([1]; mean of runs)	EC50 [1, 3] [µM]	EC50 [1, 4] [µM]	EC50 [2]	EC50 (NB7+Caspase-8; [3]) [µM]	EC50 (NB7+Caspase-8; [4]) [µM]
O=C(c1cnc(Cl)c(Cl)c1)N1CCN(S(=O)(=O)c2ccc3ccccc3c2)CC1	> 12.5 µM (inactive)	> 12.5	> 12.5	> 12.5 µM (inactive)	> 12.5	> 12.5
Cc1onc(-c2c(Cl)cccc2Cl)c1C(=O)ONC(=O)c1ccccc1	> 12.5 µM (inactive)	> 12.5	> 12.5	> 12.5 µM (inactive)	> 12.5	> 12.5
Cc1nn(-c2ccccc2)c2nc(N)c(C#N)c(-c3ccc(F)cc3)c12	inactive	> 12.5	11.5	> 12.5 µM (inactive)	> 12.5	> 12.5
CCCCC1CCC(C(=O)N(CCC(C)C)c2c(N)n(CCCC)c(=O)[nH]c2=O)CC1 (configuration not stated)	> 12.5 µM (inactive)	> 12.5	> 12.5	> 12.5 µM (inactive)	> 12.5	> 12.5
CN(C)S(=O)(=O)c1ccc(C(=O)Nc2nnc(SCC(=O)NCC3CCCO3)s2)cc1 (configuration not stated)	> 12.5 µM (inactive)	> 12.5	> 12.5	> 12.5 µM (inactive)	> 12.5	> 12.5
COc1ccc(NS(=O)(=O)c2cccc(C(=O)N/N=C/c3c(F)c(F)c(F)c(F)c3F)c2)cc1	inactive	> 12.5	11.4	> 12.5 µM (inactive)	> 12.5	> 12.5
CN(C(=O)COC(=O)c1cnc(Cl)c(Cl)c1)C1CCCCC1	> 12.5 µM (inactive)	> 12.5	> 12.5	> 12.5 µM (inactive)	> 12.5	> 12.5
Cc1cc(NC(=O)C2CCCC2)nc2c1c(=O)oc1ccccc12	> 12.5 µM (inactive)	> 12.5	> 12.5	> 12.5 µM (inactive)	> 12.5	> 12.5
O=C(N/N=C/c1cccc(OC(=O)c2ccco2)c1)c1ccc(F)cc1	inactive	4.46	7.04	inactive	4.82	4.55
Cc1cc2nc3ccc(N(C)C)cc3nc2cc1N	> 12.5 µM (inactive)	> 12.5	> 12.5	inactive	> 12.5	10.9
Cc1ccc2c(c1)C(=NC1CCCCC1)c1cc3ccccc3nc1-2	> 12.5 µM (inactive)	> 12.5	> 12.5	> 12.5 µM (inactive)	> 12.5	> 12.5
O=C(Nc1cnc2ccccn2c1=O)c1ccc(Cl)cc1Cl	> 12.5 µM (inactive)	> 12.5	> 12.5	> 12.5 µM (inactive)	> 12.5	> 12.5
Cc1ccc2c(c1)-c1nc3ccccc3cc1C2=NC1CCCCC1	> 12.5 µM (inactive)	> 12.5	> 12.5	inactive	> 12.5	7.45
O=C(N/N=C/c1cccnc1)c1ccc2c(c1)OCO2	inactive	11.2	> 12.5	> 12.5 µM (inactive)	> 12.5	> 12.5
O=c1cc(-c2ccccc2)nc2cc(-c3ccc(F)cc3)[nH]n12	> 12.5 µM (inactive)	> 12.5	> 12.5	> 12.5 µM (inactive)	> 12.5	> 12.5
CCOc1ccc(-c2nnc(-c3ccccc3)o2)cc1	> 12.5 µM (inactive)	> 12.5	> 12.5	inactive	> 12.5	10.7
COCCNc1c(-c2cc3ccc(C)c(C)c3[nH]c2=O)nc2ccccn12	inactive	> 12.5	6.1	inactive	8.39	4.64
CCN(CC)S(=O)(=O)c1ccc(C(=O)OCC(=O)Nc2ccc(-c3nc4ccc(C)cc4s3)cc2)cc1	> 12.5 µM (inactive)	> 12.5	> 12.5	> 12.5 µM (inactive)	> 12.5	> 12.5
Cn1nnc(NC(=O)c2ccc(C(C)(C)C)cc2)n1	inactive	> 12.5	5.83	inactive	> 12.5	5.01

Structure (SMILES)	EC50 ([1]; mean of runs)	EC50 [1, 3] [µM]	EC50 [1, 4] [µM]	EC50 [2]	EC50 (NB7+Caspase-8; [3]) [µM]	EC50 (NB7+Caspase-8; [4]) [µM]
CN(C)CCCN(C(=O)c1ccc(C(=O)c2ccccc2)cc1)c1nc2ccc(F)cc2s1	> 12.5 µM (inactive)	> 12.5	> 12.5	> 12.5 µM (inactive)	> 12.5	> 12.5
O/C(=C\c1ccc2ccccc2n1)c1ccc(O)cc1O	> 12.5 µM (inactive)	> 12.5	> 12.5	inactive	> 12.5	7.58
CC1(C)N=C(N)N=C(N)N1c1ccc(Oc2ccc(Cl)cc2)c(Cl)c1	inactive	1.64	0.423	inactive	1.33	0.948
Cc1ccc(NC(=O)c2ccccc2O)cc1	inactive	11.1	7.77	inactive	> 12.5	10.5
Cn1c(=O)c2c(SCC(=O)Nc3ccccc3F)nc(C3CC3)nc2n(C)c1=O	> 12.5 µM (inactive)	> 12.5	> 12.5	> 12.5 µM (inactive)	> 12.5	> 12.5
O=C1Cc2c(-c3ccccc3)cc(-c3cccc(Cl)c3)nc2-c2ccccc2N1	> 12.5 µM (inactive)	> 12.5	> 12.5	> 12.5 µM (inactive)	> 12.5	> 12.5
O=C1CCCCC1Sc1nnc(-c2ccc3c(c2)OCO3)o1 (configuration not stated)	inactive	> 12.5	11	> 12.5 µM (inactive)	> 12.5	> 12.5
C(=C\c1ccco1)/c1nc2ccccc2[nH]1	> 12.5 µM (inactive)	> 12.5	> 12.5	> 12.5 µM (inactive)	> 12.5	> 12.5
CC(C)C[C@H](NC(=O)c1nc[nH]c1C(=O)N[C@@H](CCCCNC(=O)OC(C)(C)C)C(=O)OC(C)(C)C)C(=O)OCc1ccccc1	> 12.5 µM (inactive)	> 12.5	> 12.5	> 12.5 µM (inactive)	> 12.5	> 12.5
O=C(N/N=C/c1ccc2cccnc2c1)c1ccco1	inactive	11.4	12.1	inactive	> 12.5	6.53
COC(=O)[C@]12CCCCC=C1N(Cc1cccc3ccccc13)C(=O)[C@H](CC(=O)NCc1ccc(OC)c(OC)c1)C2	inactive	> 12.5	10.2	inactive	> 12.5	10.7
COc1ccc(-c2cc(C(=O)N/N=C/c3cccnc3)c3ccccc3n2)cc1	inactive	11.3	> 12.5	> 12.5 µM (inactive)	> 12.5	> 12.5
CC(C)C(=O)Nc1ccc(NC(=O)c2ccccn2)cn1	inactive	> 12.5	11.6	inactive	> 12.5	9.78
COc1cc(NC(=O)c2cncc(-c3ccc(C#N)cc3)c2)cc(C(=O)Nc2cccc(C(F)(F)F)c2)c1	> 12.5 µM (inactive)	> 12.5	> 12.5	> 12.5 µM (inactive)	> 12.5	> 12.5
COc1ccc(OCC(=O)N/N=C/C=C/c2ccccc2)cc1	inactive	10.3	> 12.5	inactive	> 12.5	1.96
Cc1cc2nc(-c3ccc(SCC(=O)Nc4nccs4)nc3)[nH]c2cc1C	> 12.5 µM (inactive)	> 12.5	> 12.5	inactive	5.16	> 12.5
Cc1ccc2oc(-c3cccc(N)c3)nc2c1	inactive	4.71	7.88	inactive	> 12.5	5.69
Cc1ccc(NC(=O)c2cc3ccccc3o2)nc1	inactive	7.34	11	inactive	> 12.5	8.86
